For 23 compounds, IC50 results are on record in US11524960B2, “Heterobicyclic inhibitors of MAT2A and methods of use for treating cancer” (AGIOS PHARMACEUTICALS, INC., priority 2018, dated 2022).

SMILES strings stand for the structures. pIC50: −log10 of the molar value.

This assay deals with T1, MAT2A homodimer (Homo sapiens, UniProt P31153).
T1 construct: inferred from Ni sepharose purification and imidazole elution; made in house; host or cells: Sf9 insect cells, recombinant baculovirus (Bac to Bac, pFASTBAC1)
T1 sequence (P31153 whole entry): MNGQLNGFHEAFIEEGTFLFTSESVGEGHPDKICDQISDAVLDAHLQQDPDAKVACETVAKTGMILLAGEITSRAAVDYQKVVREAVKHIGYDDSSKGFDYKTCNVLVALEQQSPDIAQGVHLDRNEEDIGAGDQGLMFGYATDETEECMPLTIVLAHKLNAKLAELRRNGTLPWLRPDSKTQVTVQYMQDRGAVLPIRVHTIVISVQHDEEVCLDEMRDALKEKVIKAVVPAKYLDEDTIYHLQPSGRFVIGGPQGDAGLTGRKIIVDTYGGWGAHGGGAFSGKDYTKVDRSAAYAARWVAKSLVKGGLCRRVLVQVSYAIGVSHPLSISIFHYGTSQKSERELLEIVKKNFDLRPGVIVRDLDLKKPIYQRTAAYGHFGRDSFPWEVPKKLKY
In words: Biochemical assay: inhibition of MAT2A (phosphate release, PiColorLock Gold). To be noted: MAT2A IC50 score; read-out: Enzyme Inhibition (Example 275). Here is the method: Mat2A protein was expressed by recombinant baculovirus in SF9 infected cells using the Bac to Bac system cloned into the pFASTBAC1 vector (Invitrogen, Carlsbad, Calif.). Recombinant MAT2A was isolated from the cell lysate of 150 g of infected cells using HP Ni sepharose column chromatography. Recombinant MAT2A homodimer was eluted with 250 and 500 mM imidazole, and fractions containing MAT2A were identified by sodium dodecyl sulfate polyacrylamide gel electrophoresis and pooled.
For determination of the inhibitory potency of compounds against the MAT2A homodimer, protein was diluted to […] in assay buffer (50 mM Tris, pH 8.0, 50 mM KCl, 15 mM MgCl2, 0.3 mM EDTA, 0.005% [w/v] bovine serum albumin [BSA]). Test compound was prepared in 100% dimethyl sulfoxide (DMSO) at 50× the desired final concentration. […] of compound dilution was added to 40 μL of enzyme dilution and the mixture was allowed to equilibrate for 60 minutes at 25° C. The enzymatic assay was initiated by the addition of 10 μL of substrate mix (500 μM ATP, pH 7.0, 400 μM L-methionine in 1× assay buffer), and the mixture was incubated for a further 60 minutes at 25° C. The reaction was halted and the liberated phosphate released by the enzyme in stoichiometric amounts by the production of S-adenosyl methionine (SAM) was measured using the PiColorLock Gold kit (Innova Biosciences, UK). Absolute product amounts were determined by comparison to a standard curve of potassium phosphate buffer, pH 8.0.
Consider `O=c1c(-c2ccc(Cl)cc2)c2nc(NCC(F)(F)F)ncc2cn1-c1ccc2nccn2c1` [Example 134, 8-(4-chlorophenyl)-6-(imidazo[1,2-a]pyridin-6-yl)-2-(2,2,2-trifluoroethylamino)pyrido[4,3-d]pyrimidin-7(6H)-one], for which the pIC50 is more than 7.00.

Turning to `Cn1cc2cc(-n3cc4ccc(CS(C)(=O)=O)nc4c(-c4ccc(Cl)cc4)c3=O)ccc2n1` [Example 135-A, 8-(4-chlorophenyl)-6-(2-methyl-2H-indazol-5-yl)-2-((methylsulfonyl)methyl)-1,6-naphthyridin-7(6H)-one], the pIC50 was 6.00 to 7.00.

In the case of `O=c1c(-c2ccc(Cl)cc2)c2nc(NCC(F)(F)F)ncc2cn1-c1ccc2nncn2c1` [Example 136, 6-([1,2,4]triazolo[4,3-a]pyridin-6-yl)-8-(4-chlorophenyl)-2-((2,2,2-trifluoroethyl)amino)pyrido[4,3-d]pyrimidin-7(6H)-one], the pIC50 is 6.00 to 7.00.

Consider `COCc1ccc2cn(-c3ccc4nn(C)cc4c3)c(=O)c(-c3ccc(Cl)cc3)c2n1` [Example 136-A, 8-(4-chlorophenyl)-2-(methoxymethyl)-6-(2-methyl-2H-indazol-5-yl)-1,6-naphthyridin-7(6H)-one], for which the pIC50 is more than 7.00.

Regarding `Cc1nc2cc(-n3cc4cnc(NCC(F)(F)F)nc4c(-c4ccc(Cl)cc4)c3=O)ccc2o1` [Example 138, 8-(4-chlorophenyl)-6-(2-methylbenzo[d]oxazol-5-yl)-2-((2,2,2-trifluoroethyl)amino)pyrido[4,3-d]pyrimidin-7(6H)-one], the pIC50 was 6.00 to 7.00.

Regarding `Cn1cc(-n2cc3cnc(NCC(F)(F)F)nc3c(-c3ccc(Cl)cc3)c2=O)ccc1=O` [Example 140, 8-(4-chlorophenyl)-6-(1-methyl-6-oxo-1,6-dihydropyridin-3-yl)-2-((2,2,2-trifluoroethyl)amino)pyrido[4,3-d]pyrimidin-7(6H)-one], the pIC50 is 6.00 to 7.00.

Turning to `O=c1c(-c2ccc(Cl)cc2)c2nc(NCC(F)(F)F)ncc2cn1-c1ccc2n[nH]cc2c1` [Example 142, 8-(4-chlorophenyl)-6-(2H-indazol-5-yl)-2-((2,2,2-trifluoroethyl)amino)pyrido[4,3-d]pyrimidin-7(6H)-one], the pIC50 is 6.00 to 7.00.

On to `COc1ccc(-c2c(=O)n(-c3ccc4ncncc4c3)cc3cnc(NCC(F)(F)F)nc23)cc1` [Example 146, 8-(4-methoxyphenyl)-6-(quinazolin-6-yl)-2-((2,2,2-trifluoroethyl)amino)pyrido[4,3-d]pyrimidin-7(6H)-one], for which the pIC50 was 6.00 to 7.00.

As to `Cc1nc2cc(-n3cc4cnc(NCC(F)(F)F)nc4c(-c4ccc(OC(F)F)cc4)c3=O)ccc2o1` [Example 149, 8-(4-(difluoromethoxy)phenyl)-6-(2-methylbenzo[d]oxazol-5-yl)-2-((2,2,2-trifluoroethyl)amino)pyrido[4,3-d]pyrimidin-7(6H)-one], the pIC50 was more than 7.00.

As for `O=c1c(-c2ccc(OC(F)F)cc2)c2nc(NCC(F)(F)F)ncc2cn1-c1ccc2nn(C3CC3)cc2c1` [Example 154, 6-(2-cyclopropyl-2H-indazol-5-yl)-8-(4-(difluoromethoxy)phenyl)-2-((2,2,2-trifluoroethyl)amino)pyrido[4,3-d]pyrimidin-7(6H)-one], the pIC50 is more than 7.00.

In the case of `Cc1ccc2cc(-n3cc4cnc(NCC(F)(F)F)nc4c(-c4ccc(C5CC5)cc4)c3=O)ccc2n1` [Example 162, 8-(4-cyclopropylphenyl)-6-(2-methylquinolin-6-yl)-2-((2,2,2-trifluoroethyl)amino)pyrido[4,3-d]pyrimidin-7(6H)-one], the pIC50 is more than 7.00.

Consider `O=c1c(-c2ccc(C3CC3)cc2)c2nc(NCC(F)(F)F)ncc2cn1-c1ccc2nc(C(F)(F)F)ccc2c1` [Example 163, 8-(4-cyclopropylphenyl)-2-((2,2,2-trifluoroethyl)amino)-6-(2-(trifluoromethyl)quinolin-6-yl)pyrido[4,3-d]pyrimidin-7(6H)-one], for which the pIC50 was 5.00 to 6.00.

Regarding `O=c1c(-c2ccc(C3CC3)cc2)c2nc(NCC(F)(F)F)ncc2cn1-c1ccc2c(c1)CCO2` [Example 164, 8-(4-cyclopropylphenyl)-6-(2,3-dihydrobenzofuran-5-yl)-2-((2,2,2-trifluoroethyl)amino)pyrido[4,3-d]pyrimidin-7(6H)-one], the pIC50 was more than 7.00.

In the case of `O=c1c(-c2ccc(C3CC3)cc2)c2nc(NCC(F)(F)F)ncc2cn1-c1ccc2nccn2c1` [Example 165, 8-(4-cyclopropylphenyl)-6-(imidazo[1,2-a]pyridin-6-yl)-2-((2,2,2-trifluoroethyl)amino)pyrido[4,3-d]pyrimidin-7(6)-one], the pIC50 was more than 7.00.

Turning to `CCNc1ncc2cn(-c3ccc4nn(C)cc4c3)c(=O)c(-c3ccc(OC(F)(F)F)cc3)c2n1` [Example 170, 2-(ethylamino)-6-(2-methyl-2H-indazol-5-yl)-8-(4-(trifluoromethoxy)phenyl)pyrido[4,3-d]pyrimidin-7(6H)-one], the pIC50 was more than 7.00.

Take `Cn1cc2cc(-n3cc4cnc(NC5CC5)nc4c(-c4ccc(Cl)cc4)c3=O)ccc2n1` [Example 173, 8-(4-chlorophenyl)-2-(cyclopropylamino)-6-(2-methyl-2H-indazol-5-yl)pyrido[4,3-d]pyrimidin-7(6H)-one]: the pIC50 is more than 7.00.

Regarding `Cn1cc2cc(-n3cc4cnc(NC5CCC5)nc4c(-c4ccc(OC(F)F)cc4)c3=O)ccc2n1` [Example 174, 2-(cyclobutylamino)-8-(4-(difluoromethoxy)phenyl)-6-(2-methyl-2H-indazol-5-yl)pyrido[4,3-d]pyrimidin-7(6H)-one], the pIC50 is more than 7.00.

Turning to `Cn1cc2cc(-n3cc4cnc(NCC(F)F)nc4c(-c4ccc(OC(F)F)cc4)c3=O)ccc2n1` [Example 175, 2-((2,2-difluoroethyl)amino)-8-(4-(difluoromethoxy)phenyl)-6-(2-methyl-2H-indazol-5-yl)pyrido[4,3-d]pyrimidin-7(6H)-one], the pIC50 is more than 7.00.

As to `COc1ccc(-c2c(=O)n(-c3ccncc3)cc3cnc(NCC(F)(F)F)nc23)cc1` [Example 176, 8-(4-methoxyphenyl)-6-(pyridin-4-yl)-2-((2,2,2-trifluoroethyl)amino)pyrido[4,3-d]pyrimidin-7(6H)-one], the pIC50 was 6.00 to 7.00.

For the compound `CNc1ncc2cn(-c3ccc4ncccc4c3)c(=O)c(-c3ccc(OC(F)F)cc3)c2n1` [Example 184, 8-(4-(difluoromethoxy)phenyl)-2-(methylamino)-6-(quinolin-6-yl)pyrido[4,3-d]pyrimidin-7(6H)-one], the pIC50 was more than 7.00.

For `O=c1c(-c2ccc(OC(F)F)cc2)c2nc(N3CCC3)ncc2cn1-c1ccc2ncccc2c1` [Example 185, 2-(azetidin-1-yl)-8-(4-(difluoromethoxy)phenyl)-6-(quinolin-6-yl)pyrido[4,3-d]pyrimidin-7(6)-one], the pIC50 was 5.00 to 6.00.

As for `COc1ccc(-n2cc3cnc(NCCC(F)(F)F)nc3c(-c3ccc(Br)cc3)c2=O)cc1` [Example 186, 8-(4-bromophenyl)-6-(4-methoxyphenyl)-2-((3,3,3-trifluoropropyl)amino)pyrido[4,3-d]pyrimidin-7(6)-one], the pIC50 is 6.00 to 7.00.

For `COc1ccc(-n2cc3cnc(N(C)CC(F)(F)F)nc3c(-c3ccc(Br)cc3)c2=O)cc1` [Example 187, 8-(4-bromophenyl)-6-(4-methoxyphenyl)-2-(methyl(2,2,2-trifluoroethyl)amino)pyrido[4,3-d]pyrimidin-7(6H)-one], the pIC50 is 5.00 to 6.00.
